Source: ChEMBL document CHEMBL5107953, “SAR study of 4-arylazo-3,5-diamino-1H-pyrazoles: identification of small molecules that induce dispersal of Pseudomonas aeruginosa biofilms” (2021)

Tested on: Pseudomonas aeruginosa
Assay: Anti-biofilm activity against Pseudomonas aeruginosa PAO1 harboring wspF gene mutation assessed as reduction on c-di-GMP level by measuring GFP fluorescence at 100 uM incubated for 24 hrs […]
Format: functional
Design: scale not given: the % may be the effect or the level left

Compound	Activity [%]
N=C1NN=C(N)/C1=N/Nc1c(F)cccc1F	77
COc1ccc(NN=C2C(N)=NN=C2N)cc1	0
N=C1NN=C(N)/C1=N/Nc1ccccc1C(F)(F)F	0
N=C1NN=C(N)/C1=N/Nc1c(O)cccc1F	75
N=C1NN=C(N)/C1=N/Nc1cccc(O)c1	0
N=C1NN=C(N)/C1=N/Nc1ccccc1Br	0
N=C1NN=C(N)/C1=N/Nc1cc(Br)cc(Br)c1	0
N=C1NN=C(N)/C1=N/Nc1c(Br)cccc1Br	0
Cc1ccc(N/N=C2\C(=N)NN=C2N)c(F)c1	0
N=C1/C(=N\Nc2ccccc2F)C(N)=NN1C(=O)c1ccccc1	0
Cc1cccc(F)c1N/N=C1\C(=N)NN=C1N	0
N=C1NN=C(N)/C1=N/Nc1cc(Br)ccc1Br	0
N=C1NN=C(N)/C1=N/Nc1cc(F)ccc1F	65
NNc1ccccc1F	0
O=C1NNC(=O)C1=NNc1ccccc1F	0
CC(=O)/N=C1\NN=C(NC(C)=O)\C1=N\Nc1ccccc1F	0
NC1=NOC(=O)/C1=N\Nc1ccccc1F	0
N=C1/C(=N\Nc2ccccc2F)C(N)=NN1S(=O)(=O)c1ccc(N)cc1	0
N=C1NN=C(N)C1c1ccc2ccccc2n1 (stereo unspecified)	0

Compound	Activity [%]
N=C1/C(=N\Nc2ccccc2F)C(N)=NN1c1ccc(S(N)(=O)=O)cc1	0
N=C1NN=C(N)/C1=N/Nc1cccnc1F	13
N=C1NN=C(N)/C1=N/Nc1c(F)cccc1Br	0
N=C1NN=C(N)/C1=N/Nc1cccc(F)c1	73
N=C1NN=C(N)/C1=N/Nc1ccccc1F	83
N=C1ON=C(N)/C1=N/Nc1ccccc1O	0
N=C1NN=C(N)/C1=N/Nc1cc(Br)ccc1F	0
N=C1NN=C(N)/C1=N/Nc1ccccc1I	0
COc1ccccc1N/N=C1\C(=N)NN=C1N	0
N=C1/C(=N\Nc2ccccc2F)C(N)=NN1c1ccc(C(=O)O)cc1	0
N=C1NN=C(N)/C1=N/Nc1cc(F)cc(F)c1	35
N=C1NN=C(N)/C1=N/Nc1ccc(F)cc1	44
N=C1NN=C(N)/C1=N/Nc1ccncc1F	0
N=C1NN=C(N)/C1=N/Nc1c(O)cccc1O	15
N=C1NN=C(N)/C1=N/Nc1ccccc1	71
N=C1/C(=N\Nc2ccccc2F)C(N)=NN1Cc1ccccc1	0
N=C1NN=C(N)/C1=N/Nc1c(F)cc(F)cc1F	30
N=C1NN=C(N)/C1=N/Nc1ccc(F)cc1F	41
NC1=NNC(=O)/C1=N\Nc1ccccc1F	0

Compound	Activity [%]
N=C1/C(=N\Nc2ccccc2F)C(N)=NN1S(=O)(=O)c1ccccc1	0
N=C1NN=C(N)/C1=N/Nc1ccccc1O	55
N=C1ONC(=O)/C1=N\Nc1ccccc1F	0
N=C1ON=C(N)/C1=N/Nc1ccccc1F	0
N=C1NN=C(N)/C1=N/Nc1c(F)ccc(F)c1F	61
N=C1/C(=N\Nc2ccccc2F)C(N)=NN1C(=O)c1ccncc1	40
N=C1NN=C(N)/C1=N/Nc1ccccc1Cl	0
N=C1/C(=N\Nc2ccccc2F)C(N)=NN1c1ccc(F)cc1	0
CC(=O)NC1=NN(C(C)=O)C(=N)/C1=N\Nc1ccccc1F	0
N=C1ON=C(N)/C1=N/Nc1c(F)cccc1F	0
O=C1NOC(=O)/C1=N\Nc1ccccc1F	0
N=C1NN=C(N)/C1=N/Nc1cc(F)ccc1Br	0
N=C1NN=C(N)/C1=N/Nc1cccc(F)c1F	48
N=C1ON=C(N)/C1=N/Nc1c(O)cccc1F	0
N=C1/C(=N\Nc2ccccc2F)C(N)=NN1CCO	0
N=C1ON=C(N)/C1=N/Nc1cc(F)ccc1F	0
N=C1NN=C(N)/C1=N/Nc1ccc(F)c(F)c1F	0
N=C1NN=C(N)/C1=N/Nc1ccccc1N	0
